Experimental data reported in patent US7214669B2, “Tetracycline derivatives and methods of use thereof” (Tetragenex Pharmaceuticals, Inc., priority 2001, dated 2007).
Where “and” joins values, the source holds several entries; their conditions need not be identical. Identical values can stand only once.

Assays:
[1] = system: MAT LyLu tumor; test: Dunning MAT LyLu tumor model, survival; assay type: in vivo, Copenhagen rats; conditions: for Surviving Number: 10/group, dosed by gavage; for surviving number after tumor implantation (in words): compared to the control group
Method: (§2) Fresh dosing solutions containing 10 mg/ml of each test article in 2% carboxymethylcellulose were prepared daily and used in the testing.
(§3) Three groups of animals (10/group) were dosed by gavage with either vehicle, or one of the two analogs daily for three weeks, and then three times per week until death or sacrifice. Dosing was begun seven days prior to implantation of the MAT LyLu tumor cells by tail vein injection. Approximately 0.1 ml of tumor cell suspension was injected into one of the lateral tail veins. The dose to be chosen was based on two factors: (1) efficacy and (2) morbidity associated with the analog, if any.

[2] = Dunning MAT LyLu tumor model, weekly body weight; assay type: in vivo; conditions: compared to the control group
Method: as §2, §3

[3] = target: T1, Human recombinant MMP1 (Homo sapiens, UniProt P03956); test: MMP1 (Collagenase-1) inhibition, 14C collagen release; assay type: biochemical; conditions: 35° C., 5 hours; read-out: MMP-1 inhibitory activity, IC50
T1 sequence (P03956 100-469): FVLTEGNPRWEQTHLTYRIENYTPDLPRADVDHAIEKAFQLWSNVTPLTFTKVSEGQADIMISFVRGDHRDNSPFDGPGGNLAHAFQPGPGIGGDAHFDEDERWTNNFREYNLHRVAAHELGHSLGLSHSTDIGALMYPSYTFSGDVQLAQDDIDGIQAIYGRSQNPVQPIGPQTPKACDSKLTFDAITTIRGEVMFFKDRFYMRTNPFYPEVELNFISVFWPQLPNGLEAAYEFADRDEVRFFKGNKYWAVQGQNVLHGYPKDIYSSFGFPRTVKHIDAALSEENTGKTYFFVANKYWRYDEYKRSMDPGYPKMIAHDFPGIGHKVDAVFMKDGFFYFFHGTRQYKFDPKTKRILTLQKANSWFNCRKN
Method: Protocol for Measuring MMP1 (Collagenase-1) Inhibition by Tetracycline Derivatives
MMP1 activity was determined by the release of soluble ^14C labelled collagen fragments from ^14C acetylated rat skin type I collagen (Methods in Enzymology 80 711, 1981).
• 100 μg ^14C labelled rat skin type I collagen (5–6000 dpm) • 50 mM Tris HCl pH 7.9 • 15 mM CaCl2 0.02% azide • Human recombinant MMP1 3–4 nM • ±Tetracycline (up to 1 mM) in a total volume of 300 μl.
Incubations were at 35° C. for 5 hours. Uncleaved collagen fibrils (which form within the first 10 minutes) were removed by centrifugation at 10,000 g, 4° C., 10 minutes. 200 μl supernatant were counted in Packard Opti Phase Supermix scintillation fluid using a scintillation counter. Only data derived from within the linear part of the assay (10–70% lysis of the collagen) were utilized. Based on percentage inhibition of the activity of MMP1 alone by a range of concentrations of each sample, the IC50 value for each tetracycline was calculated by linear regression analysis.

[4] = target: T2, MMP2 (Gelatinase A) (Homo sapiens, UniProt P08253); test: MMP2 (Gelatinase A) inhibition, 14C gelatin release; assay type: biochemical; conditions: 37° C., 16 hours; read-out: MMP-2 inhibitory activity, IC50
T2 sequence (P08253 110-660): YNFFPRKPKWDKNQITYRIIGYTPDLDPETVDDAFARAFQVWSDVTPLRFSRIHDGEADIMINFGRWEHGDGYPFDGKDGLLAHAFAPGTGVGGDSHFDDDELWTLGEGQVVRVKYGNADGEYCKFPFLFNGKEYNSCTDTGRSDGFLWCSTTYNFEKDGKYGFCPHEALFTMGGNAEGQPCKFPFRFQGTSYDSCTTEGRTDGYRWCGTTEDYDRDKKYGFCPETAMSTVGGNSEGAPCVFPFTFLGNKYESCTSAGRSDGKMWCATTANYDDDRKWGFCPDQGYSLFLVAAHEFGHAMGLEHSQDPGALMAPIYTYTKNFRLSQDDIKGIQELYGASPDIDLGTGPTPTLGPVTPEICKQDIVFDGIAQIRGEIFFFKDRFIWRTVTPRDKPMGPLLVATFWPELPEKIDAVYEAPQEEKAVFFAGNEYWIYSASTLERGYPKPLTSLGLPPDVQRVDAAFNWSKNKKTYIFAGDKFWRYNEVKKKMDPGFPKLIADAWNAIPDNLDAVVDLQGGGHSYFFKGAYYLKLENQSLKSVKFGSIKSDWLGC

[5] = target: Human recombinant MMP3 (Homo sapiens, UniProt P08254); test: MMP3 (Stromelysin 1) inhibition, 14C casein release; assay type: biochemical; conditions: 37° C., 16 hours; read-out: MMP-3 inhibitory activity, IC50
[6] = target: T3, Human recombinant MMP7 (Homo sapiens, UniProt P09237); test: MMP7 (Matrilysin) inhibition, 14C casein release; assay type: biochemical; conditions: 37° C., 16 hours; read-out: MMP-7 inhibitory activity, IC50
T3 sequence (P09237 95-267): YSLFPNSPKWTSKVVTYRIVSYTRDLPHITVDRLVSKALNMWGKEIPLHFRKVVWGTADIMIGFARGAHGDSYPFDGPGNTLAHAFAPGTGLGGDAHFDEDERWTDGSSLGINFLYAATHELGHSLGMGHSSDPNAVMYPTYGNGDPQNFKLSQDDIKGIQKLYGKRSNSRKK
Method: MMP7 activity was determined by the release of trichloracetic acid, TCA, soluble fragments from ^14C acetylated β casein (Sigma) as described in Methods in Enzymology 248, 451 (1995).
• 100 μg ^14C casein (7000 dpm) • 50 mM Tris HCl, pH 7.9 • 15 mM CaCl2, 0.02% azide • Human recombinant MMP7, 1.5 nM • ±tetracycline (up to 1 mM) in a total volume of 250 μl.
Incubations were at 37° C. for 16 hours. The incubation was stopped by the addition of 500 μl cold 18% TCA and standing on ice for 15 minutes. TCA precipitates were removed by centrifugation at 10,000 g for 10 minutes at 4° C., and 200 μl supernatant was taken for scintillation counting. Only data derived from within the linear part of the assay (10–60% lysis) were utilized. The percentage inhibition of MMP7 by each concentration of the candidate tetracycline were plotted to derive the IC50 value.

[7] = target: Human recombinant MMP9 (Homo sapiens, UniProt P14780); test: MMP9 (Gelatinase B) inhibition, 14C gelatin release; assay type: biochemical; conditions: 37° C., 16 hours; read-out: MMP-9 inhibitory activity, IC50
Method: Protocol for Measuring MMP9 (Gelatinase B) Inhibition
MMP9 activity was determined by the release of trichloracetic acid, TCA soluble fragments from ^14C acetylated rat skin type I (Methods in Enzymology 248, 470, 1995. Biochem. J. 195, 1981)
• 100 μg ^14C labelled gelatin (collagen denatured 60° C. 20 min) • 50 mM Tris HCl pH 7.9 • 15 mM CaCl2, 0.02% azide • Human recombinant MMP9, 1.2–2 nM • ±Tetracycline (up to 1 mM) in a total volume of 250 μl.
Incubations were at 37° C. for 16 hours. The incubations were stopped by cooling the incubations and addition of 50 μl cold 90% (w/v) trichloracetic acid with careful mixing. TCA precipitation was allowed to proceed for 15 minutes at 4° C. prior to centrifugation at 10,000 g for 10 minutes at 4° C. 200 μl of the TCA supernatant was taken for the determination of radioactive content by scintillation counting (Packard Opti Phase Supermix scintillation fluid). Only data derived from within the linear part of the assay (10–70% lysis) were utilized. The percentage inhibition of MMP9 by each tetracycline concentration were plotted to derive the IC50 value.

[8] = target: Human recombinant MMP14 (Homo sapiens, UniProt P50281); test: MMP14 (MTI-MMP) inhibition, 14C collagen release; assay type: biochemical; conditions: 35° C., 15 hours; read-out: MMP-14 inhibitory activity, IC50
[9] = system: Ark human myeloma cancer cells; test: Membrane Invasion Culture System (MICS) chemo-invasion assay; assay type: cell-based; conditions: 24 hours, + = increased invasiveness
In short: (§1)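 Fifty thousand cells were seeded above a 35 μm laminin/collagen IV/gelatin barrier on a 10 μm-pore filter, with serum-free RPMI plus 50% fibroblast-conditioned medium below as chemoattractant. Compound at 1, 10 or 25 μg/ml, or DMSO vehicle, was present for 24 h. Invaded cells were collected, Wright-stained and counted over 5 fields.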

[10] = system: Arp-1 human myeloma cancer cells; test: as above; assay type: cell-based; conditions: 24 hours, + = increased invasiveness
In short: as §1

[11] = system: C8161 human melanoma cells; test: as above; assay type: cell-based; conditions: 24 hours, + = increased invasiveness
In short: as §1

[12] = system: MDA-MB-231 human breast cancer cells; test: as above; assay type: cell-based; conditions: 24 hours, + = increased invasiveness
In short: as §1

[13] = system: PC-3 ML human prostate cancer cells; test: as above; assay type: cell-based; conditions: 24 hours, + = increased invasiveness
In short: as §1

[14] = system: RPMI-8226 human myeloma cancer cells; test: as above; assay type: cell-based; conditions: 24 hours, + = increased invasiveness
In short: as §1

[15] = 14 days post tumor implantation
[16] = 17 days post tumor implantation
[17] = 24 days post tumor implantation
[18] = 27 days post tumor implantation
[19] = 28 days post tumor implantation
[20] = 29 days post tumor implantation
[21] = 30 days post tumor implantation
[22] = 34 days post tumor implantation
[23] = 42 days post tumor implantation

Human recombinant MMP3, sequence (P08254 100-477): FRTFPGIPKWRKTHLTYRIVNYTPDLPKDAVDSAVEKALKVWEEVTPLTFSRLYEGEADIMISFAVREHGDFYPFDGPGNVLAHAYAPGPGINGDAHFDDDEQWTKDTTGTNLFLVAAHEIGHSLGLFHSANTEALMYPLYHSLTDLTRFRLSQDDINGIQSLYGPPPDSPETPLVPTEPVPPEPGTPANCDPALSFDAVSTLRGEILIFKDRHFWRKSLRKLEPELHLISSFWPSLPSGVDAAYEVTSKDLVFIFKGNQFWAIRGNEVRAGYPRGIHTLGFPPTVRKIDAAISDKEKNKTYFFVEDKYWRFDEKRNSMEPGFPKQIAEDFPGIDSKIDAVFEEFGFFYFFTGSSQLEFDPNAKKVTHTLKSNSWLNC
Human recombinant MMP9, sequence (P14780 94-707): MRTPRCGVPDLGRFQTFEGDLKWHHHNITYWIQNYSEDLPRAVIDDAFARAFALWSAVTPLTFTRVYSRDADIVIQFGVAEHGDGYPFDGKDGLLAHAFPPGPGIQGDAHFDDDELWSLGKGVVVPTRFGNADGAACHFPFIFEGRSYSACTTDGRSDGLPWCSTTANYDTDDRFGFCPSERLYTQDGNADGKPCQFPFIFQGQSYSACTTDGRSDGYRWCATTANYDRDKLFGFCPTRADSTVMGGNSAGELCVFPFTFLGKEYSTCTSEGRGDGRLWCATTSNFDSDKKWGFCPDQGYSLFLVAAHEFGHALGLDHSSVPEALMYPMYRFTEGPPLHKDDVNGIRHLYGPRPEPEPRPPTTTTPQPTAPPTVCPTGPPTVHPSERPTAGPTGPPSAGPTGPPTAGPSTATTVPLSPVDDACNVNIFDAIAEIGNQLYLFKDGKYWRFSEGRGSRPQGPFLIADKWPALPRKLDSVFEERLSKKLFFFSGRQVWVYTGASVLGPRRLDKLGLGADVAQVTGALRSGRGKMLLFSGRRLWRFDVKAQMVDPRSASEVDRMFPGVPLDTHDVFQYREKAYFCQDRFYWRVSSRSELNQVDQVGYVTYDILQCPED

Row | SMILES | Surviving Number [1, 15] | Surviving Number [1, 16] | Surviving Number [1, 17] | Surviving Number [1, 18] | Surviving Number [1, 19] | Surviving Number [1, 20] | Surviving Number [1, 21] | Surviving Number [1, 22] | Surviving Number [1, 23] | surviving number after tumor implantation (in words) [1] | body weight changes [2] | percent inhibition, ARK ([9]; 1 ug/mL) | percent inhibition, ARP-1 ([10]; 1 ug/mL) | percent inhibition, ARP-1 ([10]; 10 ug/mL) | percent inhibition, ARP-1 ([10]; 25 ug/mL) | percent inhibition, C8161 (Melanoma) ([11]; 25 ug/mL) | percent inhibition, MDA-MB-231 (Breast) ([12]; 10 ug/mL) | percent inhibition, PC-3 ML (Prostrate) ([13]; 10 ug/mL) | further results
1 | CC1c2ccc([N+](=O)[O-])c(O)c2C(=O)C2=C(O)C3(O)C(=O)C(C(N)=O)=C(O)C(N(C)C)C3C(O)C21 (centres unmarked) [Compound 1, 9-nitro-6-deoxy-5-hydroxytetracycline H2SO4] | 8 | 8 | 8 | 8 | 8 | 6 | 4 | 4 | 4 | marked increase in surviving number | indistinguishable body weight changes | 9% and 13% | +9% | +13% | 1% | 35^B percent and 56^B percent | 20^B percent and 25^B percent | 47^B percent and 24^B percent | IC50 [3]: 267 µM; IC50 [4]: > 700 µM; IC50 [5]: 258 µM; IC50 [6]: 815 µM; IC50 [7]: 43 µM; IC50 [8]: 86 µM; percent inhibition, RPMI-8226 (Multiple Myeloma) ([14]; 1 ug/mL): 20% and 21^B percent; percent inhibition, RPMI-8226 (Multiple Myeloma) ([14]; 25 ug/mL): 15% and 29^B percent
2 | CC1c2ccc(N)c(O)c2C(=O)C2=C(O)C3(O)C(=O)C(C(N)=O)=C(O)C(N(C)C)C3C(O)C21 (centres unmarked) [Compound 2, 9-amino-6-deoxy-5-hydroxytetracycline H2SO4] | 10 | 10 | 10 | 10 | 9 | 9 | 7 | 7 | 7 | marked increase in surviving number | indistinguishable body weight changes | 20^B percent | 10% | 7% | 6% | 27^B percent | 15% | 8% | percent inhibition, ARK ([9]; 10 ug/mL): 9^B percent; percent inhibition, ARK ([9]; 25 ug/mL): 10%; percent inhibition, C8161 (Melanoma) ([11]; 1 ug/mL): 20^B percent; percent inhibition, C8161 (Melanoma) ([11]; 10 ug/mL): 25^B percent; percent inhibition, MDA-MB-231 (Breast) ([12]; 1 ug/mL): 20%; percent inhibition, MDA-MB-231 (Breast) ([12]; 25 ug/mL): 30^B percent; percent inhibition, PC-3 ML (Prostrate) ([13]; 1 ug/mL): 20%; percent inhibition, PC-3 ML (Prostrate) ([13]; 25 ug/mL): 15%; percent inhibition, RPMI-8226 (Multiple Myeloma) ([14]; 25 ug/mL, listed as 5): 36% and 42^B percent
